One test deals with EphA2-LBD (Homo sapiens, UniProt P29317). Kind of test: DELFIA displacement assay (displacement of biotinylated 123B9 from EphA2-LBD).
For test [1], the target named is T1, EphA2 (Homo sapiens, UniProt P29317). The test can be described thus: EphA2 receptor phosphorylation assay in HEK293 cells (immunoprecipitation, anti-phosphotyrosine blot). The test is classed as cell-based. Set-up: endogenous in cells; PANC-1. The settings on record: various doses.
Test [2] concerns the target T1, EphA2. Kind of test: Western blot of total EphA2 and pEphA2 S897 in BxPC3 cells. The test is classed as cell-based. Set-up: endogenous in cells; host or cells: BxPC3; PANC-1. The settings on record: 3 hours treatment. On the technique in general: A western blot detects proteins with antibodies after separation by electrophoresis.
The test system of test [3] is BxPC3 cells. Kind of test: Time-lapse scratch wound cell-migration assay. Format: cell-based. The following applies: 2.5 μM. The protocol:
Cell-migration assay: Cells were cultured in 96-well ImageLock plates (Sartorius). Next day, wells were scratched using the WoundMaker (Sartorius). Subsequently, cells were washed twice with PBS and treated with the indicated compounds in RPMI-1640 complete media. Subsequently, cells were imaged every 6 h using IncuCyte S3 (Sartorius) and relative wound areas were analyzed using the algorithm of the imager cell migration software module.

The test system of test [4] is BxPC3 cells. The test can be described thus: Time-lapse scratch wound cell invasion assay (Matrigel). Format: cell-based. The following applies: scratch wound through Matrigel, 2.5 μM. The protocol: Cell invasion assay: Matrigel (Corning) was diluted in serum-free RPMI-1640 media (1:100), 50 µL of the mixture was added to ImageLock plate and incubated at 37° C. for 2 h. Next, excess media were aspirated and cells in complete media were plated and left overnight in humidified cell culture incubator. The following day, cell culture plate was aspirated, scratched with the WoundMaker, and washed twice with PBS. Subsequently, the plate was coated with a mixture of Matrigel and cold serum-free RPMI-1640 (1:1) and left in the incubator to solidify for 30 min. Finally, 100 µL of 1.5× compound-media mixture was added to the plate at various concentrations. The healing of the scratches was imaged and calculated similar to the migration assay.

Test [5] addresses T1, EphA2. Kind of test: Western blot of total EphA2 and pEphA2 S897 in PANC-1 cells. The test is classed as cell-based. Set-up: endogenous in cells; host or cells: PANC-1.
For test [6], the target named is T1, EphA2. Kind of test: Immunofluorescence of EphA2 cellular localization in BxPC3 cells. The test is classed as cell-based. Set-up: endogenous in cells; host or cells: BxPC3; PANC-1. The following applies: 30 min treatment, 1 μM 135H12. The protocol: FIG. 4A-D. Dimeric EphA2 agonists degrade EphA2 receptors in cancer cells. […] BxPC3 cell line was treated with the indicated doses for 3 hours, then cells were lysed and Western blot studies were performed. […] BxPC3 or PANC-1 cells were treated and lysed similar to the previous Western blot. […] EphrinA1-Fc is a clustered natural ligand and used as a positive control. […] Moreover, the receptor band disappeared after 1 hour of treatment. […] Cells were immunostained with EphA2 antibody (light) and nuclei were counterstained with DAPI (dark). […] Images were acquired using confocal Inverted Zeiss 880.
In chamber slides, cells were plated and allowed to adhere overnight in humidified cell culture incubators. The following day, cells were treated with the indicated ligands for 30 min. Subsequently, cells were washed with PBS and fixed with 4% Formaldehyde (Polysciences, Inc.), then blocked and permeabilized with 5% FBS and 0.3% Triton™ X-100 for 1 h. Next, wells were washed and stained with anti-EphA2 antibody, followed by three washes and further incubation with Alexafluor goat anti-mouse 488 secondary antibody (ThermoFisher). Cells were counterstained with DAPI and mounted with Prolong Diamond Antifade (ThermoFisher). Images were acquired with confocal microscope Zeiss 880 Airyscan and processed using Adobe Photoshop CC.

The target of test [7] is T1, EphA2. Kind of test: Covalent gel shift with EphA2. The test is classed as biochemical. The settings on record: compounds incubated 10:1 for 2 hours at room temperature. The method, then: Covalent adduct formation of EphA2 with 147A5 and 147A6, respectively, were confirmed by covalent gel shift. Compounds were incubated 10:1 for 2 hours at room temperature.

Entries after “also recorded” stand apart in the source; their conditions may differ. Starred links: 1 amine or outer side, 2 acyl side, 3 side chain; linkers in the order of their positions; H or OH if unused. Non-standard residues stand in square brackets, D forms with d. Residues, ends and D or L forms follow the SMILES beside them. *: point of attachment. Dap(4-FSB) = (S)-2-amino-3-(4-(fluorosulfonyl)benzamido)propanoic acid, O=C(NC[C@H](N[*:1])C(=O)[*:2])c1ccc(S(=O)(=O)F)cc1; 7‑MethoxyBenzofuranoic = N-terminus modified by (7-methoxybenzofuran-2-yl)-methanone, COc1cccc2cc(C(=O)*)oc12; Phenoxyacetyl(3-Cl,4-F) = O=C(COc1ccc(F)c(Cl)c1)*; Dap = NC[C@H](N)C(=O)O

Experimental findings from patent US20210221843A1, “EPHA2 AGONISTS AND USES THEREOF” (THE REGENTS OF THE UNIVERSITY OF CALIFORNIA, priority 2018, published 2021) are described below.

T1 sequence (P29317 24-976): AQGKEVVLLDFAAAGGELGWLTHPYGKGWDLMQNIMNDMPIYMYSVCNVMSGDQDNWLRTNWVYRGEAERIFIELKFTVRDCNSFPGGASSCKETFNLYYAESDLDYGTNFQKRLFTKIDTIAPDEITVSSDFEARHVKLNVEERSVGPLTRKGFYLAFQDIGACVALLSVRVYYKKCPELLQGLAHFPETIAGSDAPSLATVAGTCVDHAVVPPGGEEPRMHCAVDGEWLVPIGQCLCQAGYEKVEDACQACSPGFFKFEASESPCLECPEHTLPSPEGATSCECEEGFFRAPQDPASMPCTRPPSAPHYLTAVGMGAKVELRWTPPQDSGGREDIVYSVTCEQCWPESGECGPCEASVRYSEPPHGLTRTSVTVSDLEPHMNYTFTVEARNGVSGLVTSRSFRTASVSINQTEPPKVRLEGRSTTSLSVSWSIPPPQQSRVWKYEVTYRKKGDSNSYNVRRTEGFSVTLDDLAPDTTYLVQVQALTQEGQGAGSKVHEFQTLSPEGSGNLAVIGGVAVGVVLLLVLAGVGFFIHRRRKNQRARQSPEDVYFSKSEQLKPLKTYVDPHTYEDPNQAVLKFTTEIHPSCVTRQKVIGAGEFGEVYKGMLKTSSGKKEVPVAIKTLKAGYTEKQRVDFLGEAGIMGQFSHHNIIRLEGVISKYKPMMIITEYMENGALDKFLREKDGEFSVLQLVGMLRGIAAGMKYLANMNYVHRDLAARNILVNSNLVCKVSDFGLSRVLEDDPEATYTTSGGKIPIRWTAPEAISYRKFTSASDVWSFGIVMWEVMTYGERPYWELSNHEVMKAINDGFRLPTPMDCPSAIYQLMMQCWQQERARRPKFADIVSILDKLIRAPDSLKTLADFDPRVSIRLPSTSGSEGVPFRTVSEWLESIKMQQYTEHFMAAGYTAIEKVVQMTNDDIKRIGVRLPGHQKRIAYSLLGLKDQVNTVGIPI
EphA2-LBD, sequence (P29317 28-206 limits assumed): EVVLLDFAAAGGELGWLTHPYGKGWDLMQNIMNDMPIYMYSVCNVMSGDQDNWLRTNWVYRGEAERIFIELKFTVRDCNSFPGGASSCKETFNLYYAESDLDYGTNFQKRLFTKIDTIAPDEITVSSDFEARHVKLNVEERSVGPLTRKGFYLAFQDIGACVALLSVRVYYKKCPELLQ

Consider `CC(C)[C@H](NC(=O)[C@H](CC(=O)O)NC(=O)[C@H](CC(=O)O)NC(=O)[C@@H]1CCCN1C(=O)[C@H](Cc1ccc(O)cc1)NC(=O)[C@H](C)NC(=O)[C@H](CN)NC(=O)COc1ccc(F)c(Cl)c1)C(=O)N1CCC[C@H]1C(=O)N[C@@H](Cc1ccccc1)C(=O)N[C@@H](CCCNC(=N)N)C(=O)N1CCC[C@H]1C(N)=O` [135F11] ({Phenoxyacetyl(3-Cl,4-F)}-[Dap]AYPDDVPFRP-NH2), for which, at EphA2-LBD, the IC50 – broadly, the concentration at which inhibition is half-maximal – is above 200 µM.
For the molecule `CC(C)[C@H](NC(=O)[C@H](CO)NC(=O)[C@H](CC(=O)O)NC(=O)[C@@H]1CCCN1C(=O)[C@H](Cc1ccc(O)cc1)NC(=O)[C@H](C)NC(=O)[C@H](CO)NC(=O)COc1ccc(F)c(Cl)c1)C(=O)N1C[C@H](O)C[C@H]1C(=O)N[C@@H](Cc1ccc(Cl)cc1)C(=O)N[C@@H](CCCNC(=N)N)C(=O)N1CCC[C@H]1C(N)=O` [135G3, (4F,3ClPhOCH2CO)SAYPDSV(Hyp)(4ClPhe)RP-CONH2], on EphA2 [1], the “induction of EphA2 receptor phosphorylation” value is on record as “remarkably increased cellular activity in inducing tyrosine receptor phosphorylation compared to YSA”.
For the molecule `CC(C)[C@H](NC(=O)[C@H](CO)NC(=O)[C@H](CC(=O)O)NC(=O)[C@@H]1CCCN1C(=O)[C@H](Cc1ccc(O)cc1)NC(=O)[C@H](C)NC(=O)[C@H](CO)NC(=O)COc1ccc(F)c(Cl)c1)C(=O)N1C[C@H](O)C[C@H]1C(=O)N[C@@H](Cc1ccc(Cl)cc1)C(=O)N[C@@H](CCCNC(=N)N)C(=O)N1CCC[C@H]1C(=O)NCC(=O)NCCCC[C@H](NC(=O)CNC(=O)[C@@H]1CCCN1C(=O)[C@H](CCCNC(=N)N)NC(=O)[C@H](Cc1ccc(Cl)cc1)NC(=O)[C@@H]1C[C@@H](O)CN1C(=O)[C@@H](NC(=O)[C@H](CO)NC(=O)[C@H](CC(=O)O)NC(=O)[C@@H]1CCCN1C(=O)[C@H](Cc1ccc(O)cc1)NC(=O)[C@H](C)NC(=O)[C@H](CO)NC(=O)COc1ccc(F)c(Cl)c1)C(C)C)C(N)=O` [135G4, [(4F,3ClPhOCH2CO)SAYPDSV(HYP)(4ClPhe)RPG]2-K-CONH2], on EphA2 [2], the “degradation of total EphA2 and dephosphorylation of pEphA2 S897” value was “degraded total EphA2 receptor and phosphorylated pEphA2 S897 at nanomolar concentrations; also recorded: remarkably active in inducing receptor degradation and dephosphorylation of Ser897-EphA2 at sub-micromolar concentrations”.
Turning to `COc1ccc(C[C@H](NC(=O)[C@H](C)NC(=O)[C@H](CC(C)C)NC(=O)c2oc3c(OC)c(OC)ccc3c2C)C(=O)N2CCC[C@H]2C(=O)N[C@@H](CC(=O)O)C(=O)N[C@@H](C)C(=O)N[C@H](C(=O)N2C[C@H](O)C[C@H]2C(=O)N[C@@H](Cc2ccc(Cl)cc2)C(=O)N[C@@H](CCCNC(=N)N)C(=O)N2CCC[C@H]2C(N)=O)C(C)C)cc1` [135H11, XLA(4MeTyr)PDAV(Hyp)(4ClPhe)RP-CONH2], the “inhibition of cell migration” value in the test with BxPC3 cells [3] was “inhibit cell migration”. In the test with BxPC3 cells [4], the “inhibition of cell invasion” value is “inhibited cell invasion; also recorded: equally effective in suppressing cell invasion at low micromolar concentration”. For the same molecule, the “degradation of total EphA2 and dephosphorylation of pEphA2 S897” value is “more effective than the monomer 123B9; also recorded: orders of magnitude more effective than 123B9 in causing EphA2 degradation and suppressing oncogenic pSer897-EphA2” at EphA2 [5]; “more effective than the monomer 123B9; also recorded: orders of magnitude more effective than 123B9 in causing EphA2 degradation and suppressing oncogenic pSer897-EphA2” at EphA2 [2]. Further, the EphA2 cellular localization entry on EphA2 [6] was “located at the cell membrane; also recorded: fluorescence localized at the cell membrane”.
“(7-MethoxyBenzofuranoic)LAYPDAVP-Dap(3-FSB)-RP-CONH2 ({7‑MethoxyBenzofuranoic}-LAYPDAVP[Dap(3-FSB)]RP-NH2) [147A6]”: the “covalent adduct formation with EphA2” value with EphA2 [7] is “confirmed”.
For the molecule “(7-MethoxyBenzofuranoic)LAYPDAVP-Dap(4-FSB)-RP-CONH2 ({7‑MethoxyBenzofuranoic}-LAYPDAVP[Dap(4-FSB)]RP-NH2; SMILES COc1cccc2cc(C(=O)N[C@@H](CC(C)C)C(=O)N[C@@H](C)C(=O)N[C@@H](Cc3ccc(O)cc3)C(=O)N3CCC[C@H]3C(=O)N[C@@H](CC(=O)O)C(=O)N[C@@H](C)C(=O)N[C@H](C(=O)N3CCC[C@H]3C(=O)N[C@@H](CNC(=O)c3ccc(S(=O)(=O)F)cc3)C(=O)N[C@@H](CCCNC(=N)N)C(=O)N3CCC[C@H]3C(N)=O)C(C)C)oc12) [147A5]”, the “covalent adduct formation with EphA2” value with EphA2 [7] is given as “confirmed”.

B1: ephrinA1-Fc: clustered natural ligand and used as a positive control (protein)
chain: DRHIVFWNSSNPKFREEDYTVHVQLNDYLDIICPHYEDDSVADAAMERYTLYMVEHQEYVACQPQSKDQVRWNCNRPSAKHGPEKLSEKFQRFTPFILGKEFKEGHSYYYISKPIYHQESQCLKLKVTVNGKITHNPQAHVNPQEKRLQADDPEVQVLHSIGYS
modifications: left off: a dimerising Fc or GST
notes: clustered natural ligand and used as a positive control
B1: in the test with EphA2 [6], the EphA2 cellular localization entry is reported as “punctuated fluorescence was observed in the cytoplasm”.
